Data on 20 substances can be found in patent publication US11214803B2, “Modulators of YAP1 expression” (Ionis Pharmaceuticals, Inc., priority 2019, dated 2022).

Strand notation (5' to 3'): a small letter for the sugar, then the base; units joined by * are phosphorothioate-linked, units joined directly phosphodiester-linked; [ ] holds rarer units or linkages, { } end groups; capitals alone tell only the bases. k = constrained ethyl (cEt); [5mC] = 5-methylcytosine; d = 2'-deoxy (DNA)

The first series has as its system Yap1 mRNA. Description: Antisense inhibition of human Yap1 in A-431 cells by cEt gapmers, single dose (Example 4, RTS4814). In kind it is cell-based. The following applies: Table 14; A-431 cells, 5,000 cells per well, free uptake, 2,000 nM, approximately 48 hours; RTS4814; normalized to RIBOGREEN; Yap1 mRNA relative to untreated control; * = targets amplicon region of primer probe set. The procedure, abridged: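 Values are % UTC: Yap1 mRNA by quantitative RT-PCR, normalized to RIBOGREEN total RNA. Cells were exposed ~48 h to 2,000 nM oligonucleotide without transfection. Oligonucleotides were 16-nucleoside gapmers with three cEt nucleosides per wing, ten-deoxy gap, P=S linkages throughout.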
For the substance “1076288 (k[5mC]*kT*kT*dA*dT*dT*dT*dA*dG*d[5mC]*dA*dT*dA*kG*kT*kG; antisense) [Compound 1076288]”, the “YAP1 (% UTC)” value is 3 % UTC. Regarding “1076320 (k[5mC]*kA*kT*dT*dA*dA*d[5mC]*d[5mC]*dT*d[5mC]*dA*d[5mC]*d[5mC]*k[5mC]*kA*kT; antisense) [Compound 1076320]”, the “YAP1 (% UTC)” value turned out to be 52 % UTC. Turning to “1076352 (kG*kA*kT*dA*dA*d[5mC]*d[5mC]*d[5mC]*dT*dG*dA*dA*dA*k[5mC]*kA*kA; antisense) [Compound 1076352]”, the “YAP1 (% UTC)” value turned out to be 37 % UTC.

The series is the same for the next values; noted with them: Table 15; A-431 cells, 5,000 cells per well, free uptake, 2,000 nM, approximately 48 hours; RTS4814; normalized to RIBOGREEN; Yap1 mRNA relative to untreated control; * = targets amplicon region of primer probe set.
Consider “1076257 (k[5mC]*kT*kA*dA*dG*dA*dA*dA*d[5mC]*dT*d[5mC]*dA*dT*kA*kG*kT; antisense) [Compound 1076257]”, for which the “YAP1 (% UTC)” value is 54 % UTC. Take “1076289 (kA*kA*k[5mC]*dG*dG*dA*d[5mC]*dA*dA*d[5mC]*dT*dT*dA*kA*k[5mC]*kA; antisense) [Compound 1076289]”: the “YAP1 (% UTC)” value worked out at 21 % UTC. The same measure, in the same setting: for “1076321 (k[5mC]*kA*kA*dT*dA*dT*d[5mC]*dA*d[5mC]*dT*dT*dG*dG*kG*k[5mC]*k[5mC]; antisense) [Compound 1076321]” the value was 63 % UTC; for “1076353 (kA*kT*kT*dA*dA*dA*d[5mC]*dA*dT*dT*d[5mC]*dG*dG*kA*kT*kT; antisense) [Compound 1076353]”, 30 % UTC.

Still in this series, the particulars now being: Table 16; A-431 cells, 5,000 cells per well, free uptake, 2,000 nM, approximately 48 hours; RTS4814; normalized to RIBOGREEN; Yap1 mRNA relative to untreated control cells.
“1076258 (k[5mC]*kT*kT*dT*dA*dG*dG*dT*dG*d[5mC]*d[5mC]*dT*d[5mC]*k[5mC]*kT*kT; antisense) [Compound 1076258]”: the “YAP1 (% UTC)” value was found to be 10 % UTC.

For “1076290 (k[5mC]*kT*k[5mC]*d[5mC]*dA*dA*d[5mC]*dG*dG*dA*d[5mC]*dA*dA*k[5mC]*kT*kT; antisense) [Compound 1076290]”, the “YAP1 (% UTC)” value is recorded as 28 % UTC.

On to “1076322 (kA*kT*kT*dT*dA*d[5mC]*dA*dA*dG*dT*dG*dA*dG*k[5mC]*kA*k[5mC]; antisense) [Compound 1076322]”, for which the “YAP1 (% UTC)” value came to 21 % UTC. Consider “1076354 (kG*kA*kT*dT*dA*dA*dA*d[5mC]*dA*dT*dT*d[5mC]*dG*kG*kA*kT; antisense) [Compound 1076354]”, for which the “YAP1 (% UTC)” value stood at 13 % UTC.

Staying with this series, now noted: Table 17; A-431 cells, 5,000 cells per well, free uptake, 2,000 nM, approximately 48 hours; RTS4814; normalized to RIBOGREEN; Yap1 mRNA relative to untreated control cells.
Regarding “1076259 (kA*kT*kT*dT*dA*dA*d[5mC]*dT*d[5mC]*d[5mC]*dT*dG*dA*kA*kG*kT; antisense) [Compound 1076259]”, the “YAP1 (% UTC)” value worked out at 61 % UTC. For the substance “1076291 (kG*kA*kT*dT*dA*dA*dT*dG*dG*dT*dG*dG*d[5mC]*kA*kT*kT; antisense) [Compound 1076291]”, the “YAP1 (% UTC)” value was 4 % UTC.

Regarding “1076323 (k[5mC]*kA*kA*dT*dT*dT*dA*d[5mC]*dA*dA*dG*dT*dG*kA*kG*k[5mC]; antisense) [Compound 1076323]”, the “YAP1 (% UTC)” value is given as 5 % UTC.

The same series, now with this note: Yap1 mRNA remaining as percent of untreated control; 3-10-3 cEt gapmers; A-431 cells; Table 36.
Regarding “1076278 (kA*kA*kT*dA*dA*dG*dG*dA*d[5mC]*dA*dG*dG*dA*k[5mC]*k[5mC]*k[5mC]; antisense) [compound 1076278]”, the “YAP1 (% UTC)” value worked out at 29 % UTC. As for “1076310 (kA*k[5mC]*k[5mC]*d[5mC]*dT*dA*dT*dA*d[5mC]*dT*dT*dG*dA*kA*kT*kT; antisense) [compound 1076310]”, the “YAP1 (% UTC)” value is 36 % UTC. Still for that read-out and setting: for “1076342 (antisense k[5mC]*kA*kT*dT*dA*dA*d[5mC]*dT*dA*d[5mC]*dA*dA*d[5mC]*kT*kG*kT) [compound 1076342]” the value was 33 % UTC.

Staying with this series, now noted: Yap1 mRNA remaining as percent of untreated control; 3-10-3 cEt gapmers; A-431 cells; Table 37.
Regarding “1076279 (k[5mC]*kA*kA*dT*dA*dA*dG*dG*dA*d[5mC]*dA*dG*dG*kA*k[5mC]*k[5mC]; antisense) [compound 1076279]”, the “YAP1 (% UTC)” value was determined as 71 % UTC. With “1076311 (kT*kA*kT*dA*dA*d[5mC]*d[5mC]*d[5mC]*dT*dA*dT*dA*d[5mC]*kT*kT*kG; antisense) [compound 1076311]”, the “YAP1 (% UTC)” value is recorded as 56 % UTC.

With “1076343 (antisense kA*kG*kA*d[5mC]*dT*dA*dA*dA*dT*d[5mC]*dT*dT*d[5mC]*k[5mC]*k[5mC]*kT) [compound 1076343]”, the “YAP1 (% UTC)” value was 8 % UTC.
